How the values were obtained:
Type in all cases: in vivo, rat
P2X3 receptor = test: Immunohistochemistry of P2X3 receptor expression in dorsal root ganglion of CCI rats; details: L4/L5 DRG
[1] = test system: rats that suffer from superficial second degree foot burn; test: Thermal hyperalgesia (thermal withdrawal latency) in rats with foot burn; details: for thermal withdrawal latency (TWL) in comparison to group III (burn) / thermal withdrawal latency (TWL) after 144 hours: superficial second degree foot burn + drug; for thermal withdrawal latency (TWL) in comparison to group III (burn): 24 hours after burn, p<0.01
Description: Male SD rats, 220-250 g, 60 rats were included, which were provided by the Department of Experimental Animals from the Medical College of Nanchang University, and the animals were divided into different groups at random. Group I was the group of sham burn in skin of feet; group II was the group of puerarin injection+first degree or superficial second degree burn in skin of feet; group III was the group of physiological saline+first degree or superficial second degree burn in skin of feet; group IV was the group of sham burn in skin of back; group V was the group of puerarin injection+first degree or superficial second degree burn in skin of back; group VI was the group of physiological saline+first degree or superficial second degree burn in skin of back. Puerarin injection was dissolved in physiological saline and the concentration was 50 mg/mL. vena caudalis injection of 4 mL/kg physiological saline was carried out for the rats in group III and […] 0.5 h before burn, and the injection was carried out once a day until the termination of the test; […], and the injection was carried out once a day until the termination of the test; skin of feet or back of the rats from group I and group IV (the sham burn group) were immersed in warm water of 37° C. for 8 seconds.
After the rats were anesthetized by ether, their right posterior feet were immersed in hot water of 70° C. for 5 seconds or 8 seconds, then they were raised in separate cages after burn. The mechanical withdrawal threshold and the thermal withdrawal threshold in their right posterior feet were measured respectively before burn (Oh) and 1, 24, 48, 72, 96, 120, 144 hours after burn (the room temperature was maintained at 22±0.5° C.).
The organic glass box was placed on a glass plate of 3 mm thick and BME-410C type automatic thermalgia stimulator was used to irradiate the footplates of rats. The time for the appearance of leg withdrawal after the irradiation on footplates of rats by using the thermal radiation stimulator was considered as the thermal withdrawal latency (TWL). The time for cutting off was 25 seconds in order to prevent burn on tissues.
(§1) The organic glass box was placed on a glass plate of 3 mm thick and BME-410C type automatic thermalgia stimulator (Institute of Biomedical Engineering, Chinese Academy of Medical Sciences) was used to irrdiate the footplates of rats. The time for the appearance of leg withdrawal after the irradiation on footplates of rats by using the thermal radiation stimulator was considered as the thermal withdrawal latency. The time for cutting off was 30 seconds in order to prevent burn on tissues.

P2X3 mRNA [2] = test: RT-PCR of P2X3 mRNA expression in dorsal root ganglion of burn rats; details: n=3
Description: SD rats (their body weights were between 200±20 g) were randomly divided into the group I (sham back burn), the group II (Puerarin, intraperitoneal injection), the group III (superficial second degree back burn), the group IV (superficial second degree back burn+puerarin), the group V (control) and the group VI (superficial second degree back burn+Indocin). The rats in the group IV (superficial second degree back burn+puerarin) were subjected to intraperitoneal injection of puerarin (100 mg/kg) 30 minutes before burn and after burn everyday for continuous three days. The rats in the group VI (superficial second degree back burn+Indocin) were subjected to intraperitoneal injection of idomethine (4 mg/kg/d) 30 minutes before burn and after burn everyday for continuous three days. Primer design: β-actin was selected as the internal reference and the sequences for the primers were as below: Gel image system was used to record the scanned values for spot density (average optical density) of target electrophoresis bands, and the ratio between P2X3 band and corresponding β-actin band was used as the relative amount of P2X3 mRNA expression.

P2X3 mRNA [3] = test: In situ hybridization of P2X3 mRNA in dorsal root ganglion of burn rats; details: n=10
Description: SD rats (their body weights were 200±20 g) were randomly divided into the group I (sham back burn), the group II (Puerarin, intraperitoneal injection), the group III (superficial second degree back burn), the group IV (superficial second degree back burn+puerarin), the group V (control) and the group VI (superficial second degree back burn+Indocin). The rats in the group IV (superficial second degree back burn+puerarin) were subjected to intraperitoneal injection of Puerarin (100 mg/kg) everyday for continuous three days 30 minutes before and after burn. The rats in the group VI (superficial second degree back burn+Indocin) were subjected to intraperitoneal injection of idomethine (4 mg/kg/d) everyday for continuous three days 30 minutes before burn and after burn. Results of in situ hybridization were subjected to analysis by using Hmias-2000 high-resolution color medical image analysis system for the detection of P2X3 receptor expression in dorsal root ganglion (DRG) in burn position of rats.

[4] = test system: rats that suffer from neuropathic pain (chronic constriction injury of sciatic nerve); test: Thermal hyperalgesia (thermal withdrawal latency) in rats with neuropathic pain (CCI); details: for thermal withdrawal latency (TWL) in comparison with group III (CCI): CCI rats, puerarin i.p. 50 mg/mL, 4 mL/kg daily, idomethine 4 mg/kg/d i.p. (seven days after ligation), p<0.01
Description: Male SD rats, 220-250 g were provided by the Department of Experimental Animals from the Medical College of Nanchang University. The rats were divided into […] at random and 12 rats were included in each group. Experimental grouping: I (sham); II (puerarin); III (chronic constriction injuries, CCI); IV (CCI+puerarin); V (control); VI (CCI+Indo). The puerarin injection was dissolved in physiological saline and the concentration was 50 mg/mL. Group I were subjected to intraperitoneal injection of physiological saline (4 mL/kg); Group II were subjected to intraperitoneal injection of puerarin injection (4 mL/kg); Skins of the […] were cut open and their sciatic nerves were exposed, then their skin was sew up without ligating nerves. Group IV were subjected to intraperitoneal injection of puerarin injection (4 mL/kg) everyday on the first day after CCI operation. Intraperitoneal injection of idomethine (4 mg/kg/d) was carried out on the rats in […] half an hour before the operation and after the operation everyday, and the injection was carried out once a day until the test was finished.
Thiopental sodium was used to anesthetize the rats (30 mg/kg, intraperitoneal injection), and the skin in the outer side of right thighs of the rats was cut open under sterile conditions, and blunt dissection was carried out to isolate the sciatic nerves, then the sciatic nerves were slightly ligated with 4-0 chromicized catgut and four ligations were carried out in total, and an interval of about 1 mm was left between two knots. […] The rats were raised in separate cages after the operation, and mechanical withdrawal threshold and thermal withdrawal latency were determined before the operation (0 d) and 1, 3, 5, 7, 9, 11, 14 days after the operations respectively (Time for the determination is set at 10[…]00-14[…]100 everyday, and the room temperature was maintained at 22±0.5° C.).
as §1, with “irradiate” for “irrdiate”, “latency (TWL).” for “latency.”

[5] = CCI rats + drug, 14 days after operation, CCI 1.64±0.05, control 1.15±0.03
[6] = superficial second degree back burn + drug (puerarin 100 mg/kg i.p., idomethine 4 mg/kg/d i.p., three days), burn 1.04±0.03, control 0.91±0.03
[7] = superficial second degree back burn + drug (puerarin 100 mg/kg i.p., idomethine 4 mg/kg/d i.p., three days), burn 1.15±0.04, control 0.99±0.02

COc1ccc2c(c1)c(CC(=O)O)c(C)n2C(=O)c1ccc(Cl)cc1 [Indocin, Indometacin]
average optical density of P2X3 positive neurons (P2X3 receptor, immunohistochemistry) (P2X3 receptor; [5]): 1.34±0.04
thermal withdrawal latency (TWL) in comparison to group III (burn) [1]: significantly increased
thermal withdrawal latency (TWL) after 144 hours ([1]; p>0.05): almost recovered to normal level
relative expression amount of P2X3 mRNA (after normalization with corresponding β-actin), RT-PCR (P2X3 mRNA [2]; [6]): 0.97±0.02
average optical density (P2X3 mRNA, in situ hybridization, DRG) (P2X3 mRNA [3]; [7]): 1.06±0.05
thermal withdrawal latency (TWL) in comparison with group III (CCI) [4]: increased

O=c1c(-c2ccc(O)cc2)coc2c([C@@H]3O[C@H](CO)[C@@H](O)[C@H](O)[C@H]3O)c(O)ccc12 [puerarin]
average optical density of P2X3 positive neurons (P2X3 receptor, immunohistochemistry) (P2X3 receptor; [5]): 1.28±0.04
average optical density of P2X3 positive neurons (P2X3 receptor, immunohistochemistry) (P2X3 receptor; puerarin alone, no CCI, 14 days): 1.07±0.03
thermal withdrawal latency, comparison among sham, puerarin alone and control ([1]; puerarin alone i.p., no burn, p>0.05): no significant difference
thermal withdrawal latency (TWL) in comparison to group III (burn) [1]: significantly increased
thermal withdrawal latency (TWL) after 144 hours ([1]; p>0.05): almost recovered to normal level
relative expression amount of P2X3 mRNA (after normalization with corresponding β-actin), RT-PCR (P2X3 mRNA [2]; puerarin alone i.p., no burn): 0.89±0.02
relative expression amount of P2X3 mRNA (after normalization with corresponding β-actin), RT-PCR (P2X3 mRNA [2]; [6]): 0.90±0.02
average optical density (P2X3 mRNA, in situ hybridization, DRG) (P2X3 mRNA [3]; puerarin alone i.p., no burn): 0.97±0.01
average optical density (P2X3 mRNA, in situ hybridization, DRG) (P2X3 mRNA [3]; [7]): 1.01±0.03
thermal withdrawal latency, difference from group V (control) after 14 days ([4]; CCI rats + puerarin, 14 days, p>0.05): not statistically significant
thermal withdrawal latency (TWL) in comparison with group III (CCI) [4]: significantly increased
thermal withdrawal latency, difference among sham, puerarin alone and control ([4]; puerarin alone, no CCI, p>0.05): not significant

From patent US8362070B2, “Application of puerarin in the preparation of P2X3 mediated drugs for pain/nervous system diseases” (Nanchang University, priority 2009, dated 2013)
